This note sets out measurements from patent US9790536B2, “Methods for assaying alpha-L-iduronidase enzymatic activity” (University of Washington, priority 2007, dated 2017).

SMILES strings stand for the structures.

The target of the assay is T1, α-L-iduronidase (IdA; EC 3.2.1.76) (Homo sapiens, UniProt P35475).
T1 construct: Incubation with IdA present in DBS leads to enzymatic release of the iduronyl group; from tissue; host or cells: dried blood spot (DBS) extract, 3-mm punch
T1 sequence (P35475 28-653): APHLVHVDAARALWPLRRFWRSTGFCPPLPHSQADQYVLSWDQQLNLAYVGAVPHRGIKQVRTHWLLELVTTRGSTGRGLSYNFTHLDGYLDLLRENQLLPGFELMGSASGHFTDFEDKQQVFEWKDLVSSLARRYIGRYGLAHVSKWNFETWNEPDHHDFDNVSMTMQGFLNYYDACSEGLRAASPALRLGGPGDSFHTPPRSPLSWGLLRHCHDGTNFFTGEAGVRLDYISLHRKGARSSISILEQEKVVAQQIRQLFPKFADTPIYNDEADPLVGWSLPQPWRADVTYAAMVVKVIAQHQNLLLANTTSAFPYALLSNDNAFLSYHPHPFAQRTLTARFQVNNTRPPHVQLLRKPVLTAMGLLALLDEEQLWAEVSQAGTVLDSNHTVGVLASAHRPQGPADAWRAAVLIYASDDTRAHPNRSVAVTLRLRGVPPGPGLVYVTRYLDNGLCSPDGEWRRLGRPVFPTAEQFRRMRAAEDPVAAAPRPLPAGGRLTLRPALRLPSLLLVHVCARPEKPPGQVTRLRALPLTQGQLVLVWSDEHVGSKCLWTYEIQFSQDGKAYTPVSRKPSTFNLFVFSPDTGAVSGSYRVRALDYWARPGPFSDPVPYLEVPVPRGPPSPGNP
Put plainly: ESI-MSMS assay of α-L-iduronidase enzymatic activity in dried blood spots (IdA-P formed as a function of IdA-S concentration). It counts as biochemical. The note with it: IdA in DBS extract; 37° C., 20 h; IdA-S 0 to 0.67 mmol/L; fit to Michaelis-Menten equation (FIG. 7). The procedure: A representative method of the invention for assaying α-L-iduronidase enzymatic activity by tandem mass spectrometry is described in Example 3. […] The amount of IdA-P increases linearly with incubation time from 0 to 30 h (FIG. 6); 20 h was chosen as the standard incubation time for the assay described in Example 3. The amount of IdA-P formed at 20 h increased in a hyperbolic fashion as the concentration of IdA-S increased from 0 to 0.67 mmol/L, and Km was determined to be 0.2 mmol/L (FIG. 7). An IdA-S concentration of 0.5 mmol/L was chosen in order to be under saturation conditions. The amount of IdA-P increases with the surface area of added DBS (FIG. 8), with a plateau reached at higher blood amounts (presumably due to the presence of endogenous inhibitors in the DBS). In one embodiment, the method uses a 3-mm-DBS punch.
A single 3-mm diameter DBS (containing ˜3.6 μL of blood) was obtained with a leather punch and was placed in a 1-mL Eppendorf tube. Extraction buffer [160 μL of 0.1 mol/L sodium formate pH 3.4 containing 75 μmol/L D-saccharic acid 1,4-lactone (Sigma); storage at −20° C.] was added to the tube. […]
Extraction of IdA-P and IdA-IS from the enzymatic reaction and blank was performed by addition of 250 μL of ethyl acetate. […] The sample was analyzed within the first 45 seconds of infusion, and after 1 min, the MSMS signal has returned to the background level. […]

What is called Km is the concentration of substrate that gives half-maximal velocity. `CC(C)(C)OC(=O)NCCCCNC(=O)Cc1cc(=O)oc2cc(O[C@@H]3O[C@@H](C(=O)O)[C@@H](O)[C@H](O)[C@H]3O)ccc12` [IdA-S, (N-[4″-(tert-butoxycarbonylamino)-butyl]) 7-O-(α-L-idopyranosyluronic acid)coumarin-4-acetamide]: the Km is 200 µM.
